Reference: US12661357B2, “Use of pyrido[1,2-a]pyrimidone analogue” (GUANGZHOU JOYO PHARMATECH CO., LTD, priority 2021, dated 2026)
Read-outs that look alike come from different tables or passages of the source.

Tests used:
[1] = system: CAL-27 head and neck cancer cells; experiment: CTG cell proliferation IC50, CAL-27; assay type: cell-based; settings: CAL-27 cells, 72 hours, read-out: Absolute IC50
Text: (§1) • 2). IC50 value: the concentration of inhibitor when 50% inhibitory effect was achieved; • 3). CAL-27 and RPMI 2650: head and neck cancer cell models; HepG2: hepatocellular cancer cells. CAL-27, RPMI 2650 and HepG2 cells were purchased from ATCC, where ATCC® No. was CRL-2095™, CCL-30™, HB-8065™, respectively. • 4). Both KYSE-150 and TE-1 were esophageal cancer cell models. The KYSE-150 cell line was purchased from DSMZ (German Collection of Microorganisms and Cell Cultures), and the DSMZ No. was ACC375; the TE-1 cell line was purchased from National Collection of Authenticated Cell Cultures, catalog number: TCHu89. • 5). RPMI 1640/F12 medium was a 1:1 mixture of RPMI 1640 medium and F12 medium. • 6). The percentages in 10% FBS in Table 1 and Table 2 were volume percentages. (2) Reagents • 1). FBS (fetal bovine serum) (purchased from ExCell, product number: FND500); • 2). MEM medium (purchased from Hyclone, product number: SH30024.01; • 3). DMEM medium (purchased from Gibco, product number: C11995500BT); • 4). MEM NEAA (purchased from Gibco, product number: 11140-050); • 5). RPMI1640 Culture medium (purchased from Gibco, product number: 11875-119); • 6). F12 Culture medium (purchased from Gibco, product number: 11765-054); (3) Test Article and Positive Control Article
(§2) 2. CTG Method was Used to Determine the Cell Proliferation IC50 of the Compound
• Step 1: Cells in exponential growth phase were harvested, and viable cells were counted with a Vi-Cell XR cytometer. The cell suspension was adjusted to an appropriate concentration with medium. […] After 10 minutes, the fluorescence signal value was measured with an Envision2104 plate reader. […]
(§3) Cell survival rate was calculated using the formula: Vsample/Vvehicle control×100%. Where, Vsample was the reading of the drug treatment group, and Vvehicle control was the average value of the solvent control group. GraphPad Prism 5.0 software was used, and a S-type dosage-survival rate curve was drawn using a nonlinear regression model and IC50 value was calculated.

[2] = system: HepG2 hepatocellular cancer cells; experiment: CTG cell proliferation IC50, HepG2; assay type: cell-based; settings: read-out: Absolute IC50
Text: • 2). IC50 value: the concentration of inhibitor when 50% inhibitory effect was achieved; • 3). CAL-27 and RPMI 2650: head and neck cancer cell models; HepG2: hepatocellular cancer cells. CAL-27, RPMI 2650 and HepG2 cells were purchased from ATCC, where ATCC® No. was CRL-2095™, CCL-30™, HB-8065™, respectively. • 4). Both KYSE-150 and TE-1 were esophageal cancer cell models. The KYSE-150 cell line was purchased from DSMZ (German Collection of Microorganisms and Cell Cultures), and the DSMZ No. was ACC375; the TE-1 cell line was purchased from National Collection of Authenticated Cell Cultures, catalog number: TCHu89. • 5). RPMI 1640/F12 medium was a 1:1 mixture of RPMI 1640 medium and F12 medium. • 6). The percentages in 10% FBS in Table 1 and Table 2 were volume percentages. (2) Reagents • 1). […]
• Step 1: Cells in exponential growth phase were harvested, and viable cells were counted with a Vi-Cell XR cytometer. […] After 10 minutes, the fluorescence signal value was measured with an Envision2104 plate reader. […]
as §3

[3] = system: KYSE-150 esophageal cancer cells; experiment: CTG cell proliferation IC50, KYSE-150; assay type: cell-based; settings: KYSE-150 cells, 72 hours, read-out: Absolute IC50
Text: as §1, §2
• Step 1: Cells in exponential growth phase were harvested, and viable cells were counted with a Vi-Cell XR cytometer. The cell suspension was adjusted to an appropriate concentration with medium. 90 μL of cell suspension was added to each well of a 96-well cell culture plate, and the final cell concentration was 1500-6000 cells/well. • Step 2: The initial concentration of administration of compound I is 3 μM, and the initial concentration of administration of the control drug Alpelisib and Cisplatin was 10 μM, serially diluted 3-fold, a total of 9 concentration gradients and a DMSO control, the final concentration of DMSO in each well was 0.1%, placed in a 37° C., 5% CO2 incubator for 72 hours. • Step 3: After 72 hours of drug treatment, 50 μL (½ culture volume) CTG solution that was melted and equilibrated to room temperature was added to each well according to the CTG operation instructions. […] After 10 minutes, the fluorescence signal value was measured with an Envision2104 plate reader. […]
as §3

stage IV gastric cancer = experiment: Gastric cancer clinical trial (Subject 4); assay type: in vivo, human; settings: 0.7 mg then 0.4 mg once a day
Method: Clinical data: Subject 4. The informed consent form was made on Nov. 5, 2019. During the baseline period, examinations such as vital signs, physical examination, ECOG physical strength score, infectious disease markers, blood routine, urine routine, coagulation function, liver function, kidney function, electrolytes, fasting blood glucose, blood lipids, 12-lead electrocardiogram were performed. The tumor was diagnosed as stage IV gastric cancer. The lesions were located in the right lobe of the liver and the right lobe of the posterior liver, and the baseline diameters were 36.4 mm and 33.1 mm. Two surgical regimens, five therapeutic regimens including chemotherapy, anti-angiogenesis inhibitors combined with chemotherapy, and immunotherapy regimens were drug-resistant for subject 4 before medication administration; from Nov. 14, 2019, tablets containing compound I were single administered with a dose of 0.7 mg once a day. The dose of 0.7 mg contained one tablet of compound I with a specification of 0.5 mg and two tablets of compound I with a specification of 0.1 mg. After the subject's safety was confirmed, one week later, from Nov. 20, 2019, the tablets containing 0.7 mg of compound I were single administered, once a day, and the dose of 0.7 mg contained one tablet of compound I with a specification of 0.5 mg and two tablets of compound I with a specification of 0.1 mg. After the first cycle, the dose was reduced to 0.4 mg, single administration, once a day, until Apr. 9, 2020 and the 0.4 mg dose contained four tablets of compound I of 0.1 mg. During the period, examinations such as vital signs, physical examination, blood routine, urine routine, coagulation function, liver function, kidney function, electrolytes, fasting blood glucose, blood lipids, 12-lead electrocardiogram were performed.

[4] = system: stage IV nasopharyngeal carcinoma; experiment: Nasopharyngeal carcinoma clinical trial (Subject 5); assay type: in vivo, human; settings: 0.4 mg once a day
Method: Clinical data: Subject 5. The informed consent form was made on Aug. 19, 2019. During the baseline period, examinations such as vital signs, physical examination, ECOG physical strength score, infectious disease markers, blood routine, urine routine, coagulation function, liver function, kidney function, electrolytes, fasting blood glucose, blood lipids, 12-lead electrocardiogram were performed. The tumor was diagnosed as stage IV nasopharyngeal carcinoma, the lesion was located in the left posterior nasopharynx, and the baseline diameter was 23.1 mm. Two surgical regimens, two radiotherapy regimens, nine different chemotherapy regimens and immunotherapy regimens before medication were all drug-resistant for subject 5 before medication administration; from Aug. 28, 2019, tablets containing compound I were single administered with a dose of 0.4 mg once a day. The dose of 0.4 mg contained four tablets of compound I with a specification of 0.1 mg. After the subject's safety was confirmed, one week later, from Sep. 3, 2019, the tablets containing compound I were single administered continuously with a dose of 0.4 mg once a day, and the dose of 0.4 mg contained four tablets of compound I with a specification of 0.1 mg. […]

For `COCCOc1cnc2ccc(-c3cnc(OC)c(NS(=O)(=O)c4sc(C)nc4C)c3)cn2c1=O` [Compound I], the IC50 ([1]; listed as compound I) was less than 1000 nM, the IC50 [1] was 73 nM and the IC50 ([2]; 72 hours) was 574 nM. The IC50 ([2]; Homo sapiens, HepG2, 72 h) was less than 1000 nM, the IC50 ([3]; listed as compound I) was less than 1000 nM and the IC50 [3] was 34 nM. For the same compound, the progression-free survival (stage IV gastric cancer) was 5 months, the serious side effects (stage IV gastric cancer) was “one time of hyperglycemia above grade 3” and the “target lesion tumor change” value (stage IV gastric cancer; second month visit (C2D28)) was −9%. The “progression-free survival (PFS)” value [4] was 10 months and the serious side effects [4] was “no serious side effects”.
